{"source": "ChEMBL document CHEMBL3259734", "about": "“Cepharanthine inhibited HIV-1 cell-cell transmission and cell-free infection via modification of cell membrane fluidity” (Bioorg Med Chem Lett, 2014)", "key": {"[1]": {"assay": "Cytotoxicity against human MOLT4 cells assessed as cell growth inhibition after 24 hrs by MTT assay", "format": "cell-based", "details": "MOLT-4 cells"}, "MOLT-4 [2]": {"system": "MOLT-4", "assay": "Cytotoxicity against human MOLT4 cells assessed as cell growth inhibition up to 20 ug/ml washout after 1 hr measured at 24 hrs by MTT assay", "format": "cell-based", "details": "molt-4, 1 h"}, "MOLT-4 [3]": {"system": "MOLT-4", "assay": "Cytotoxicity against human MOLT4 cells assessed as cell growth inhibition at 1 to 10 ug/ml washout after 1 hr measured at 24 hrs by MTT assay", "format": "cell-based"}, "[4]": {"assay": "Cytotoxicity against human TZM-bl cells assessed as cell growth inhibition at 1 to 10 ug/ml washout after 1 hr measured at 24 hrs by MTT assay", "format": "cell-based"}, "PBMC": {"system": "PBMC", "assay": "Cytotoxicity against human PHA-blast cells from PBMC assessed as cell growth inhibition at 1 to 10 ug/ml washout after 1 hr measured at 24 hrs by MTT assay", "format": "cell-based"}, "[5]": {"assay": "Cytotoxicity against human PHA-blast cells from CBMC assessed as cell growth inhibition at 1 to 10 ug/ml washout after 1 hr measured at 24 hrs by MTT assay", "format": "cell-based"}, "MOLT-4 [6]": {"system": "MOLT-4", "assay": "Reduction in membrane fluidity in human MOLT4 cells assessed as fluorescence polarization of DPH by spectrophotofluorometry", "format": "functional, cell-based"}, "[7]": {"system": "Human immunodeficiency virus 1", "assay": "Antiviral activity against HIV1 NL4.3 infected in human PHA-blast cells from PBMC assessed as reduction in viral production measured as p24 protein expression cells pretreated for 1 hr with compound at 1 to 5 ug/ml and washed 1 hr after infection measured at day 4 post infection by flow cytometry", "format": "functional, organism-based"}, "[8]": {"system": "Human immunodeficiency virus 1", "assay": "Antiviral activity against HIV1 NL4.3 infected in human PHA-blast cells from PBMC assessed as reduction in viral production measured as p24 protein expression cells pretreated for 1 hr with compound at 1 to 5 ug/ml and washed 1 hr after infection measured at day 4 post infection by ELISA", "format": "functional, organism-based"}, "HEK-293T": {"system": "HEK-293T", "assay": "Suppression of syncytial formation in HIV1 envelope Env-GFP expressing HEK293T cells co-cultured with 1 hr at up to 5 ug/ml compound treated human TZM-bl cells by fluorescent microscopy", "format": "cell-based", "details": "Human immunodeficiency virus 1"}, "MOLT-4 [9]": {"system": "MOLT-4", "assay": "Inhibition of HIV1 envelope Env-dependent cell fusion in JurkatHXBc2 cells expressing Env co-cultured with 1 hr at compound treated PKH67-labelled human MOLT4 cells at 1:1 ratio for 24 hrs by fluorescent microscopy", "format": "cell-based", "details": "Human immunodeficiency virus 1"}, "MOLT-4 [10]": {"system": "MOLT-4", "assay": "Inhibition of HIV1 envelope Env-dependent cell fusion in JurkatHXBc2 cells expressing Env co-cultured with 1 hr at compound treated PKH67-labelled human MOLT4 cells at 1:1 ratio for 24 hrs by flow cytometry", "format": "cell-based", "details": "Human immunodeficiency virus 1"}}, "note": "Activity calls are given as the source filed them. The rule behind the calls is not given here."}
{"compound": "COc1ccc2cc1Oc1ccc(cc1)C[C@H]1c3c(cc4c(c3Oc3cc5c(cc3OC)CCN(C)[C@@H]5C2)OCO4)CCN1C", "note": "[CEPHARANTHINE]", "values": [{"measurement": "CC50 at 24 h", "setting": "[1]", "value": 10, "unit": "µg/mL"}, {"measurement": "Activity", "setting": "MOLT-4 [2]", "value": "Non-toxic"}, {"measurement": "Activity", "setting": "MOLT-4 [3]", "value": "Non-toxic"}, {"measurement": "Activity", "setting": "[4]", "value": "Non-toxic"}, {"measurement": "Activity", "setting": "PBMC", "value": "Non-toxic"}, {"measurement": "Activity", "setting": "[5]", "value": "Non-toxic"}, {"measurement": "Activity", "setting": "MOLT-4 [6]", "value": "Dose-dependent effect"}, {"measurement": "inhibition", "setting": "[7]", "value": "Active"}, {"measurement": "inhibition", "setting": "[8]", "value": "Active"}, {"measurement": "Activity", "setting": "HEK-293T", "value": "Active"}, {"measurement": "inhibition", "setting": "MOLT-4 [9]", "value": "Dose-dependent effect"}, {"measurement": "inhibition", "setting": "MOLT-4 [10]", "value": "Dose-dependent effect"}]}
